# Data as given in patent US10732171B2, “Human skin sample methods and models for validating hypotheses for mechanisms driving skin pigmentation” (The Procter & Gamble Company, priority 2011, dated 2020).
# Tests used:
# tone genes = experiment: Human Ex-vivo Pre-Clinical Model, fold regulation changes by clinical formulations; type: cell-based; conditions: FIGS. 25a and 25b
# Method: FIGS. 25a and 25b show two respective tables showing ex-vivo model fold regulation changes indicating significant down-regulation by clinical formulations in the Human Ex-vivo Pre-Clinical Model.
# (§1) The ex-vivo screening method has provided identification of agents consistent with in-vitro studies and which have proven positive clinically. One such example is hexyldecanol. […] For example, total melanin assays were performed using a rat melanoma line known to produce melanin. […] Therefore, promising tone agents such as hexyldecanol identified from the in-vitro model and the ex-vivo model have been tested in clinical settings.
# [1] = tested on: rat melanoma line known to produce melanin; experiment: total melanin assay in melanoma cell culture; type: cell-based; conditions: rat melanoma cell cultures; compared to controls
# Method: as §1
# [2] = tested on: facial skin tone (spots, melanin evenness); experiment: 9-week clinical study, randomized, double-blind, vehicle-controlled, split-face; type: in vivo, human
# From the text: For example, hexyldecanol was compared to vehicle controls and positive controls (5% Niacinamide+1% undecylenoyl phenylalanine) through a 9-week period. Specifically the trial included a 9-week clinical study with a randomized, double-blind, round robin, vehicle-controlled, split-face design, including one week normalization period whereby 330 subjects received test product.
# tone genes of interest = experiment: ex-vivo tissue culture exposed to compounds known to stimulate the pigmentation pathway, tone gene regulation; type: cell-based, human; conditions: p≤0.1, minimum of 2-10 experiments each
# 9 epidermal tone genes [3] = experiment: Stem Cell Factor/Endothelin 1 driven ex-vivo human skin tissue, regulation of tone genes vs untreated control; type: cell-based; conditions: number of the 9 epidermal genes regulated, Stem Cell Factor/Endothelin 1 driven tissue sample, 37° C. and 70% humidity
# Method: Referring to FIGS. 19 to 23, examples (of 2-10 experiments each) are shown for the regulation of the 9 epidermal tone genes against an untreated control in ex-vivo tissue driven by the combination of Stem Cell Factor and Endothelin at 37° C. and 70% humidity for niacinamide, hexamidine, N-Acetyl glucosamine, kojic acid, tranexamic acid, and undecylenoyl phenylalanine. […] For instance, out of the 9 epidermal genes, at least one compound (undecylenoyl phenylalanine) regulated 5 genes (with a statistical significance of p<0.1 or better) while two compounds regulated 2 or fewer genes (with a p<0.1 or better). Table 2 below summarizes the number of epidermal genes regulated by certain materials in a Stem Cell Factor/Endothelin 1 driven tissue sample with a statistical significance of p≤0.1.
# In example embodiments, tone is driven by application of stem cell factor and/or endothelin (with skin preparation, culturing, and mRNA processing being completed as previously described). In an example embodiment, skin samples are placed within 6-well plates, with 2.5 ml of media per well. A concentration of eighty nanograms per milliliter of stem cell factor as well as eighty nanograms per milliliter of endothelin was applied to tissue in the wells, with the media being refreshed daily. The culture was maintained for seven days. […]
# 9 epidermal tone genes [4] = experiment: endogenously driven ex-vivo human skin tissue, regulation of tone genes (mRNA/PCR) vs untreated control; type: cell-based; conditions: number of epidermal genes regulated, endogenously driven tissue sample, 37° C. and 70% humidity, 2-10 experiments each
# Method: Referring to FIGS. 11 to 15, examples are shown for the regulation of the 9 epidermal tone genes against an untreated control in an endogenously driven ex-vivo tissue system at 37° C. and 70% humidity for niacinamide, hexamidine, N-Acetyl glucosamine, kojic acid, tranexamic acid, and undecylenoyl phenylalanine (2-10 experiments each). […] For instance, out of the 9 epidermal genes, at least one compound (Hexamidine) regulated 9 genes (with a statistical significance of p<0.1 or better) while two compounds regulated 5 or fewer genes (with a p<0.1 or better). Table 1 below summarizes the number of epidermal genes regulated by certain materials in an endogenously driven tissue sample with a statistical significance of p≤0.1.
# Culturing involved setting up culture plates: putting 2.5 ml of media or treatment into each well of a 6-well tissue plate, adding one Millicell culture insert to each well, and putting 100 μl of 1×DMEM on the center of each insert membrane. Squares were selected randomly placed into each of the inserts (one piece of skin per insert), on top of the media on the membrane. The plates were stored at either 33° C. (though an additional non-limiting example would be 37° C. depending on the experiment endpoint). […]
# Culture and treatment of the model comprised replicates of n=5 (though replicates of additional quantities may be used such as n=6). […]
compound,measurement,setting,value
"CCCCCCCCC(CO)CCCCCC (stereo not drawn) [Hexyldecanol, hexyldecanol]",gene regulation in ex-vivo model,tone genes,down-regulation
same,total melanin produced,[1],decreased total melanin
same,overall comparison to vehicle,[2]; significant if p<0.10 (1-sided) vs. vehicle,statistically better than vehicle controls
same,melanin evenness,[2]; versus vehicle control,significantly different from controls
same,spot area fraction (total area of spots per face),[2]; versus vehicle control,decreased versus the control group
Stem Cell Factor: compound known to stimulate the pigmentation pathway; paracrine agent,regulation of tone genes of interest,tone genes of interest,up regulate one or more tone genes of interest
tranexamic acid,# of Genes with p ≤ 0.1,9 epidermal tone genes [3],3
same,# Genes (out of 9) with p ≤ 0.1,9 epidermal tone genes [4],7
α-MSH [reference compound],regulation of tone genes of interest,tone genes of interest,up regulate one or more tone genes of interest
